Assay results as given in patent publication US20250017905A1, “COMPOSITION FOR INHIBITING HISTAMINE-N-METHYLTRANSFERASE” (SUNTORY HOLDINGS LIMITED, priority 2021, published 2025).

Molecular target: T1, recombinant human histamine-N-methyltransferase (HNMT) (Homo sapiens, UniProt P50135)
T1 construct: host or cells: Escherichia coli
Assay: Evaluation of histamine-N-methyltransferase inhibitory activity (Eurofins Panlabs, [3H]N-methylhistamine formation)
Assay type: biochemical
Description: The study was commissioned to Eurofins Panlabs. The study was performed using recombinant human histamine-N-methyltransferase (HNMT) expressed in Escherichia coli. First, HNMT (0.025 μg/mL) was incubated with L-ergothioneine (L-ergothioneine concentration: 10 μM, 30 μM, 100 μM, 300 μM, or 1000 μM) in a phosphate buffer (pH 7.8) at 37° C. for 15 minutes. Next, 20 μM histamine, 1.4 μM S-(5′-adenosyl)-L-methionine, and 0.014 μM S-adenosyl-L-[methyl-3H]methionine were added to initiate an enzymatic reaction. After incubating at 37° C. for 30 minutes, 2.5 M borate was added to terminate the reaction. Lastly, the enzyme inhibitory activity of L-ergothioneine was evaluated using the amount of [3H]N-methylhistamine formed in the reaction as an index.
The concentration (μM) on the horizontal axis is the L-ergothioneine concentration.

T1 sequence (P50135 whole entry): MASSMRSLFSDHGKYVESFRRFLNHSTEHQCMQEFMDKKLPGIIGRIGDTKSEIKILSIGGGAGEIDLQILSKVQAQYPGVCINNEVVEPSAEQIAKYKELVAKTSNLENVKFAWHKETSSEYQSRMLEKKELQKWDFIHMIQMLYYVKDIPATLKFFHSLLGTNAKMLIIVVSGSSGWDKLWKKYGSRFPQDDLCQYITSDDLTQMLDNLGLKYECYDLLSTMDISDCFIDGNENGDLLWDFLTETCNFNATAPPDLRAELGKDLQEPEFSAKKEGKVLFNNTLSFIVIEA

In the case of C[N+](C)(C)[C@@H](Cc1c[nH]c(=S)[nH]1)C(=O)[O-] [L-ergothioneine], the “histamine-N-methyltransferase inhibition (FIG. 1), in words” value (10 μM, 30 μM, 100 μM, 300 μM, or 1000 μM) is reported as “concentration-dependent manner” and the IC50 (HNMT 0.025 μg/mL, phosphate buffer pH 7.8, 37° C., 20 μM histamine, 10-1000 μM tested, read-out: L-ergothioneine concentration (IC50) that inhibits 50% of substrate binding of histamine-N-methyltransferase) is reported as 46.2 µM.
